System: PBMCs from HCMV seropositive subjects
Assay: ex vivo IFN-γ Fluorospot assay
Format: cell-based, human
Conditions: 19 HCMV seropositive subjects, individual peptide 10 ug/ml, 20 hr; for No. of subjects responding: IFN-γ; for Magnitude of response: IFN-γ spots (FIG. 1: SFC/10^6 PBMC; no unit in table)
Description: To define the targets of HCMV-specific T cell epitopes recognized in healthy adults, the inventors screened PBMCs of 19 subjects, 10 males and 9 females, recruited from San Diego blood bank (SDBB). The HCMV seropositivity of all the subjects was confirmed by IgG ELISA (FIG. 6A). A total of 2593 HCMV peptides covering a total of 563 ORFs (1) were tested. However, as many of these predicted ORFs overlapped 100% with others, as they were internal to longer ORFs, these 563 contained 359 completely unique ORFs composed of ˜150“canonical” ORFs, and an additional ˜200 identified by ribosomal RNA profiling (1). These peptides corresponded to predicted dominant epitopes, based on a bioinformatic method that predicts promiscuous binding to HLA class II molecules (40). Each of the ORFs above was covered by multiple predicted epitopes (with a minimum of at least 2), with the exception of very small ORFs (less than 15-20 amino acid residues), in which case at least one peptide was synthetized. The 2593 peptides were arranged in 89 pools of 28-30 15-mer peptides. PBMC reactivity of each of the 89 pools was assayed directly ex vivo using an IFN-γ Fluorospot assay.
For the initial CMV ORF screen, the responses of 19 CMV-seropositive subjects were evaluated. PBMCs were stimulated with 89 pools covering 563 ORFs of HCMV. Each pool comprised of 28-30 15-mer peptides overlapping by 10 residues. PBMCs that were found reactive to a pool were further tested against individual peptides contained in the pool using IFN-γ Fluorospot assay.
PBMC were thawed, washed and counted for viability using the trypan blue exclusion method. 200,000 cells were plated in triplicates and stimulated with pools (2 ug/ml) or peptides (10 ug/ml), PHA (10 ug/ml) or medium containing equivalent amount of DMSO in 96-well plates (Immubilion-P, Millipore) previously coated with anti IFN-γ antibody (1-DIK, Mabtech, Stockholm, Sweden). After 20 hr incubation at 37° C., cells were discarded and wells were washed six times with PBS/0.05% Tween 20 using an automated plate washer and further incubated with IFN-γ antibody (7-B6-1-FS-BAM) for 2 hrs at room temperature. After incubation, wells were washed and incubated with fluorophore conjugated anti-BAM-490 antibody for 1 hr at room temperature. Finally, the plates were washed and incubated with fluorescence enhancer for 15 min, blotted dry and fluorescent spots were counted by computer assisted image analysis (IRIS Fluorospot reader, Mabtech, Sweden).
Each pool or peptide was considered positive compared to the background that had equivalent amount of DMSO based on the following criteria: (i) 20 or more spot forming cells (SFC) per 10^6 PBMC after background subtraction, (ii) the stimulation index greater than 2, and (iii) p<0.05 by student's t test or Poisson distribution test

150 (CEIKPYVVNPVVATA) [compound 150]
No. of subjects responding: 3 | Magnitude of response: 2583

151 (DPLLRLSQVAGSGRR) [compound 151]
No. of subjects responding: 2 | Magnitude of response: 2067

152 (LPLCSTARLRLAPRR) [compound 152]
No. of subjects responding: 1 | Magnitude of response: 467

153 (RATGNFRSTSLYAAV) [compound 153]
No. of subjects responding: 3 | Magnitude of response: 4220

154 (RCCTLRFRRRCRARC) [compound 154]
No. of subjects responding: 2 | Magnitude of response: 713

155 (MSATRHHRCCTLRFR) [compound 155]
No. of subjects responding: 1 | Magnitude of response: 277

156 (RVFCLSADWIRFLSL) [compound 156]
No. of subjects responding: 2 | Magnitude of response: 846

157 (HLGWQTLSNHVIRRL) [compound 157]
No. of subjects responding: 1 | Magnitude of response: 127

159 (SCTHPYVISLVTPLT) [compound 159]
No. of subjects responding: 1 | Magnitude of response: 80

160 (ISLVTPLTINATLRL) [compound 160]
No. of subjects responding: 1 | Magnitude of response: 317

161 (CRVDADLGLLYAVCL) [compound 161]
No. of subjects responding: 1 | Magnitude of response: 673

162 (VCLILSFSIVTAALW) [compound 162]
No. of subjects responding: 1 | Magnitude of response: 43

163 (MFFLAIRDHDTAGGI) [compound 163]
No. of subjects responding: 1 | Magnitude of response: 1637

164 (LQTMLRKEVNSQLSL) [compound 164]
No. of subjects responding: 2 | Magnitude of response: 1606

165 (LVKQIKVRVDMVRHR) [compound 165]
No. of subjects responding: 3 | Magnitude of response: 580

166 (RVDMVRHRIKEHMLK) [compound 166]
No. of subjects responding: 2 | Magnitude of response: 250

167 (LRRKMMYMCYRNIEF) [compound 167]
No. of subjects responding: 6 | Magnitude of response: 1697

168 (CSPDEIMSYAQKIFK) [compound 168]
No. of subjects responding: 2 | Magnitude of response: 194

169 (EERDKVLTHIDHIFM) [compound 169]
No. of subjects responding: 2 | Magnitude of response: 107

170 (VLCCYVLEETSVMLA) [compound 170]
No. of subjects responding: 1 | Magnitude of response: 93

171 (ITKPEVISVMKRRIE) [compound 171]
No. of subjects responding: 1 | Magnitude of response: 1600

172 (FAQYILGADPLRVCS) [compound 172]
No. of subjects responding: 1 | Magnitude of response: 30

173 (EAIVAYTLATAGASS) [compound 173]
No. of subjects responding: 3 | Magnitude of response: 19333

177 (STPFLMEHTMPVTHP) [compound 177]
No. of subjects responding: 4 | Magnitude of response: 740

178 (YRNMIIHAATPVDLL) [compound 178]
No. of subjects responding: 2 | Magnitude of response: 130

179 (VMVRIFSTNQGGFML) [compound 179]
No. of subjects responding: 2 | Magnitude of response: 3560

180 (VVVGIVLCLSLASTV) [compound 180]
No. of subjects responding: 1 | Magnitude of response: 1417

181 (SPVAAELPHPSPAPM) [compound 181]
No. of subjects responding: 2 | Magnitude of response: 166

182 (SYLAVHLRISHRYYH) [compound 182]
No. of subjects responding: 1 | Magnitude of response: 290

183 (IAITMVMRFWQYING) [compound 183]
No. of subjects responding: 3 | Magnitude of response: 163

187 (LHRRAAVSGRRSLLQ) [compound 187]
No. of subjects responding: 1 | Magnitude of response: 87

188 (MLRLLFTLVLLALYG) [compound 188]
No. of subjects responding: 3 | Magnitude of response: 4593

189 (HVRLLSYRGDPLVFK) [compound 189]
No. of subjects responding: 3 | Magnitude of response: 333

From patent US20250332249A1, “CYTOM[…] CELL EPITOPES AND USES THEREOF” (LA JOLLA INSTITUTE FOR IMMUNOLOGY, priority 2021, published 2025)
